From patent US8399438B2, “2α-methyl-19-nor-1α-hydroxy-homopregnacalciferol and its uses” (Wisconsin Alumni Research Foundation, priority 2004, dated 2013) come the findings set out here.

The test system of assay [1] is Sprague-Dawley rats. Kind of assay: PTH suppression (bioactive serum PTH, ELISA). The class given is in vivo, rat. The method, then: Adult, female Sprague-Dawley rats were obtained from Harlan (Madison, Wis.). Upon receipt, the animals were identified by individual tail marks. Animals were housed in suspended, stainless steel, wire-bottom cages. Each cage contained one animal. The animal rooms were maintained at a temperature of 68 to 72° F. and a relative humidity of 25 to 75%. The holding rooms were set to provide 12 hours of light per day. Water and a purified rodent diet (Suda et al., Purified Rodent Diet-Diet 11) containing […] 0.3% phosphorus and fat soluble vitamins A, D, E and K were provided ad libitum. Treatment Groups Animals were randomly assigned to treatment groups (5 animals/group). All doses were administered intraperitoneally in 100 microliters of propylene glycol. Four to seven consecutive doses were given approximately 24 hours apart. Dosing was initiated after the animals had been allowed to acclimate for at least one week. Dose Preparation Control Material Negative Control Material […] The solution was mixed and then stored at 2 to 8° C. The analogs were prepared by first determining the concentration of an ethanol stock solution using UV spectrophotometry (extinction coefficient=42,000; λmax=252 nm). The analog solutions were then volumetrically added to propylene glycol so that there was less than 5% ethanol in the final solution. The solution was mixed and stored at 2 to 8° C. […] Serum PTH Levels. Twenty-four hours after the final dose, blood was collected from the tail artery and the concentration of bioactive serum PTH was measured using the rat BioActive Intact PTH ELISA Kit from Immutopics, Inc. (San Clemente, Calif.). Serum Calcium Analysis Twenty-four hours after the final dose, approximately 1 ml of blood was collected from the tail artery of each experimental animal. The blood was allowed to coagulate at room temperature and then centrifuged at 3000×g for 15 minutes. The serum was transferred to a polypropylene tube and stored frozen at −20° C. The level of calcium was determined by diluting the serum into 0.1% lanthum chloride and measuring the absorbance on an atomic absorption spectrophotometer (Perkin Elmer Model 3110, Shelton, Conn.).

The test system of assay [2] is Sprague-Dawley rats. Kind of assay: Bone calcium mobilization (serum calcium) in vitamin D-deficient rats. It counts as in vivo, rat. The settings on record: for bone calcium mobilization (serum calcium): rats on 0.02% Ca diet. As to the method: (§1) Male, weanling Sprague-Dawley rats were placed on Diet 11 (0.47% Ca) diet+AEK for one week followed by Diet 11 (0.02% Ca)+AEK for 3 weeks. The rats were then switched to a diet containing 0.47% Ca for one week followed by two weeks on a diet containing 0.02% Ca. Dose administration began during the last week on 0.02% calcium diet. Four consecutive ip doses were given approximately 24 hours apart. Twenty-four hours after the last dose, blood was collected from the severed neck and the concentration of serum calcium determined as a measure of bone calcium mobilization. The first 10 cm of the intestine was also collected for intestinal calcium transport analysis using the everted gut sac method.

The test system of assay [3] is 24-hydroxylase (24Ohase) gene promoter in ROS 17/2.8 (bone) cells. Description: In vitro transcription assay (24-hydroxylase promoter luciferase reporter). The settings on record: ROS 17/2.8 cells, 16 h, FIG. 3, read-out: EC50, transcriptional activity in bone cells. It counts as cell-based. The method, then: Transcription activity was measured in ROS 17/2.8 (bone) cells that were stably transfected with a 24-hydroxylase (24Ohase) gene promoter upstream of a luciferase reporter gene (Arbour et al., 1998). Cells were given a range of doses. Sixteen hours after dosing the cells were harvested and luciferase activities were measured using a luminometer.
RLU=relative luciferase units.

In assay [4] the test system is Sprague-Dawley rats. Kind of assay: Intestinal calcium transport (everted gut sac method) in vitamin D-deficient rats. The class given is in vivo, rat. To be noted: for intestinal calcium transport: everted gut sac. The method, then: as §1
The subject of assay [5] is Human promyelocytic leukemia (HL60) cells. Kind of assay: HL-60 differentiation (nitro blue tetrazolium reduction). To be noted: FIG. 2; for EC50: HL60 cells, 4 days, NBT reduction. It counts as cell-based. As to the method:
The study drugs were dissolved in ethanol and the concentrations determined using UV spectrophotometry. Serial dilutions were prepared so that a range of drug concentrations could be tested without changing the final concentration of ethanol (≦0.2%) present in the cell cultures.
Human promyelocytic leukemia (HL60) cells were grown in RPMI-1640 medium containing 10% fetal bovine serum. The cells were incubated at 37° C. in the presence of 5% CO2.
HL60 cells were plated at 1.2×10^5 cells/ml. Eighteen hours after plating, cells in duplicate were treated with drug. Four days later, the cells were harvested and a nitro blue tetrazolium reduction assay was performed (Collins et al., 1979; J. Exp. Med. 149:969-974). The percentage of differentiated cells was determined by counting a total of 200 cells and recording the number that contained intracellular black-blue formazan deposits. Verification of differentiation to monocytic cells was determined by measuring phagocytic activity (data not shown).

Assay [6] has as its target T1, full-length recombinant rat vitamin D receptor (Rattus norvegicus, UniProt P13053).
T1 construct: Full-length recombinant rat receptor was expressed in E. coli; histidine tag (C); made in house; host or cells: E. coli BL21 (DE3) Codon Plus RIL
T1 sequence (P13053 1-423): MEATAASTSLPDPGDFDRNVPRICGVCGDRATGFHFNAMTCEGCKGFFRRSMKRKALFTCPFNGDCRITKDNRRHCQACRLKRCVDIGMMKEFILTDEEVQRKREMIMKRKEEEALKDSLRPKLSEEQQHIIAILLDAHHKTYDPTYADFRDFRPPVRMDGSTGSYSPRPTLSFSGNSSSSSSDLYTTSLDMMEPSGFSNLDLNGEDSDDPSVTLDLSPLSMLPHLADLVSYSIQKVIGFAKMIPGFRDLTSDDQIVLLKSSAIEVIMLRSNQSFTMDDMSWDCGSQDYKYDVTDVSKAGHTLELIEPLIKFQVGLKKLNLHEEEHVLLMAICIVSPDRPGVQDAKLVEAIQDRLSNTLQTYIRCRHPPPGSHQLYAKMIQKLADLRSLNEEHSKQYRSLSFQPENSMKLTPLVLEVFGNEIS
Description: Vitamin D receptor binding, competition with [3H]-1,25(OH)2D3. To be noted: FIG. 1. As to the method:
Full-length recombinant rat receptor was expressed in E. coli BL21 (DE3) Codon Plus RIL cells and purified to homogeneity using two different column chromatography systems. The first system was a nickel affinity resin that utilizes the C-terminal histidine tag on this protein. The protein that was eluted from this resin was further purified using ion exchange chromatography (S-Sepharose Fast Flow). Aliquots of the purified protein were quick frozen in liquid nitrogen and stored at −80° C. until use. For use in binding assays, the protein was diluted in TEDK50 (50 mM Tris, 1.5 mM EDTA, pH7.4, 5 mM DTT, 150 mM KCl) with 0.1% Chaps detergent. The receptor protein and ligand concentration were optimized such that no more than 20% of the added radiolabeled ligand was bound to the receptor.
Radiolabeled and unlabeled ligands were added to 100 mcl of the diluted protein at a final ethanol concentration of ≦10%, mixed and incubated overnight on ice to reach binding equilibrium. The following day, 100 mcl of hydroxylapatite slurry (50%) was added to each tube and mixed at 10-minute intervals for 30 minutes. The hydroxylapaptite was collected by centrifugation and then washed three times with Tris-EDTA buffer (50 mM Tris, 1.5 mM EDTA, pH 7.4) containing 0.5% Titron X-100. […] Total binding was determined from the tubes containing only radiolabeled ligand.

In assay [1] (100 pmol/day ip, 4 consecutive days), `C=C1/C(=C\C=C2/CCC[C@]3(C)[C@@H]([C@H](C)CCCC(C)(C)O)CC[C@@H]23)C[C@@H](O)C[C@@H]1O` [1,25(OH)2D3, 1α,25-dihydroxyvitamin D3, reference compound] had a PTH suppression of 100%. Also, the “bone calcium mobilization (serum calcium)” value in assay [2] (all dosages tested) is listed as “increased serum calcium levels”. Further, the results for the EC50 in assay [3] and in assay [5] were 0.29 nM and 3.6 nM, respectively. In addition, the intestinal calcium transport entry in assay [4] (260 pmol/day ip) is “promotes a significant increase”.
Turning to `CC(C)C1CCC2C(=CC=C3CC(O)C(C)C(O)C3)CCCC21C` (stereo not drawn) [2α-methylP, 2α-methyl-19-nor-1α-hydroxy-homopregnacalciferol], the PTH suppression result is “about 20%” in assay [1] (500 pmol/day ip, 7 consecutive days); “about 20%” in assay [1] (1500 pmol/day ip, 7 consecutive days); “about 60%” in assay [1] (4500 pmol/day ip, 7 consecutive days). Besides, the “PTH suppression compared to 1,25(OH)2D3 (in words)” value in assay [1] (FIG. 6) is recorded as “not as potently as 1,25(OH)2D3”. Moreover, in assay [6], the “VDR binding compared to 1,25-(OH)2D3 (in words)” value is given as “bound equally well”. Further, the Ki in assay [6] (full-length recombinant rat VDR) came out at 0.94 nM. Further, the “bone calcium mobilization (serum calcium)” value in assay [2] (87 pmol/day ip, 4 consecutive days) is given as “did not result in mobilization of bone calcium”; in assay [2] (260 pmol/day ip, 4 consecutive days), “without any substantial effect”; in assay [2] (780 pmol/day ip, 4 consecutive days), “without any substantial effect”; in assay [2] (2340 pmol/day ip, 4 consecutive days), “without any substantial effect”. In addition, in assay [2] (overall, FIG. 4), the “bone calcium mobilization activity compared to 1,25(OH)2D3 (in words)” value is “very little bone calcium mobilization activity”. For the same compound, the EC50 in assay [3] stood at 3.3 nM; in assay [5] (Homo sapiens, HL-60, 96 h), 38 nM. Further, the intestinal calcium transport result in assay [4] (87 pmol/day ip), in assay [4] (260 pmol/day ip), in assay [4] (780 pmol/day ip) and in assay [4] (2340 pmol/day ip) was “does not promote intestinal calcium transport” each time. In addition, in assay [4] (overall, FIG. 5), the “intestinal calcium transport activity compared to 1,25(OH)2D3 (in words)” value is “very little activity”. For the same compound, the “HL-60 cell differentiation potency compared to 1,25(OH)2D3 (in words)” value in assay [5] is reported as “almost as potent as 1,25(OH)2D3”.
